Test results reported in patent publication US20240000872A1, “NOVEL BACTERIOPHAGE THAT LYSES ACINETOBACTER GENUS BACTERIA HAVING RESISTANCE TO ANTIBIOTICS” (priority 2020, published 2024).

Test system: Acinetobacter baumannii strains
Test: Antibiotic susceptibility test (CLSI disk diffusion test method, read per CLSI 2016)
Assay type: cell-based
Protocol: (§1) Strain identification was performed using a kit such as AT 32 GN system (bioMérieux, Marcy l'Etoile, France). […] In Table 2 below, S, I, and R are the results obtained by evaluating susceptibility to the antibacterial agents, in which ‘S’ means susceptible, ‘I’ means intermediate, and ‘R’ means resistant.
as §1, with “as ATB” for “as AT”, “system (bioMédrieux,” for “system (bioMérieux,”, “Table 6” for “Table 2”
as §1, with “as ATB” for “as AT”, “Table 10” for “Table 2”, “susceptible, T” for “susceptible, ‘I’”

C[C@H]1COc2c(N3CCN(C)CC3)c(F)cc3c(=O)c(C(=O)O)cn1c23 [Levofloxacin, levofloxacin]
I: antibiotic susceptibility class (host strain YMC14/01/IP122) | antibiotic susceptibility class (host strain YMC14/01/P117) | antibiotic susceptibility class (host strain YMC14/01/R3474)
R: antibiotic susceptibility class (host strain YMC14/01/C29) | antibiotic susceptibility class (host strain YMC14/01/L8) | antibiotic susceptibility class (host strain YMC14/01/P31) | antibiotic susceptibility class (host strain YMC14/01/P224) | antibiotic susceptibility class (host strain YMC14/01/P727) | antibiotic susceptibility class (host strain YMC14/01/P728) | antibiotic susceptibility class (host strain YMC14/01/R130) | antibiotic susceptibility class (host strain YMC14/01/R160) | antibiotic susceptibility class (host strain YMC14/01/R198) | antibiotic susceptibility class (host strain YMC14/01/R257) | antibiotic susceptibility class (host strain YMC14/01/R270) | antibiotic susceptibility class (host strain YMC14/01/R324) | antibiotic susceptibility class (host strain YMC14/01/R443) | antibiotic susceptibility class (host strain YMC14/01/R451) | antibiotic susceptibility class (host strain YMC14/01/R560) | antibiotic susceptibility class (host strain YMC14/01/R617) | antibiotic susceptibility class (host strain YMC14/01/R671) | antibiotic susceptibility class (host strain YMC14/01/R732) | antibiotic susceptibility class (host strain YMC14/01/R767) | antibiotic susceptibility class (host strain YMC14/01/R904) | antibiotic susceptibility class (host strain YMC14/01/R905) | antibiotic susceptibility class (host strain YMC14/01/R921) | antibiotic susceptibility class (host strain YMC14/01/R941) | antibiotic susceptibility class (host strain YMC14/01/R958) | antibiotic susceptibility class (host strain YMC14/01/R1006) | antibiotic susceptibility class (host strain YMC14/01/R1199) | antibiotic susceptibility class (host strain YMC14/01/R1659) | antibiotic susceptibility class (host strain YMC14/01/R1722) | antibiotic susceptibility class (host strain YMC14/01/R1752) | antibiotic susceptibility class (host strain YMC14/01/R2429) | antibiotic susceptibility class (host strain YMC14/01/R2572) | antibiotic susceptibility class (host strain YMC14/01/R2855) | antibiotic susceptibility class (host strain YMC14/01/R2945) | antibiotic susceptibility class (host strain YMC14/01/R3007) | antibiotic susceptibility class (host strain YMC14/01/R3129) | antibiotic susceptibility class (host strain YMC14/01/R3317) | antibiotic susceptibility class (host strain YMC14/01/R3574) | antibiotic susceptibility class (host strain YMC14/01/U313) | antibiotic susceptibility class (host strain YMC14/01/U318) | antibiotic susceptibility class (host strain YMC14/02/L18) | antibiotic susceptibility class (host strain YMC14/02/P47) | antibiotic susceptibility class (host strain YMC14/02/R1860) | antibiotic susceptibility class (host strain YMC14/02/R2417) | antibiotic susceptibility class (host strain YMC14/02/R2599) | antibiotic susceptibility class (host strain YMC14/02/R2668) | antibiotic susceptibility class (host strain YMC14/02/R2758) | antibiotic susceptibility class (host strain YMC14/02/R2781) | antibiotic susceptibility class (host strain YMC14/02/R3106) | antibiotic susceptibility class (host strain YMC14/02/R3419) | antibiotic susceptibility class (host strain YMC14/02/U1607) | antibiotic susceptibility class (host strain YMC14/03/L9) | antibiotic susceptibility class (host strain YMC14/03/P471) | antibiotic susceptibility class (host strain YMC14/03/R122) | antibiotic susceptibility class (host strain YMC14/03/R217) | antibiotic susceptibility class (host strain YMC14/03/R380) | antibiotic susceptibility class (host strain YMC14/03/R618) | antibiotic susceptibility class (host strain YMC14/03/R2144) | antibiotic susceptibility class (host strain YMC14/03/U4616) | antibiotic susceptibility class (host strain YMC14/04/R1078) | antibiotic susceptibility class (host strain YMC14/04/R1080) | antibiotic susceptibility S/I/R (host strain YMC14/06/R2359) | susceptibility category (S/I/R) (host strain YMC14/06/R2359) | antibiotic susceptibility S/I/R (host strain YMC14/08/R1169) | susceptibility category (S/I/R) (host strain YMC14/08/R1169) | antibiotic susceptibility S/I/R (host strain YMC14/08/T90) | susceptibility category (S/I/R) (host strain YMC14/08/T90) | antibiotic susceptibility S/I/R (host strain YMC15/02/R436) | susceptibility category (S/I/R) (host strain YMC15/02/R436) | antibiotic susceptibility S/I/R (host strain YMC15/02/T28) | susceptibility category (S/I/R) (host strain YMC15/02/T28) | antibiotic susceptibility S/I/R (host strain YMC15/03/R1604) | susceptibility category (S/I/R) (host strain YMC15/03/R1604) | antibiotic susceptibility S/I/R (host strain YMC15/09/R1869) | susceptibility category (S/I/R) (host strain YMC15/09/R1869) | antibiotic susceptibility S/I/R (host strain YMC16/01/P11) | susceptibility category (S/I/R) (host strain YMC16/01/P11) | antibiotic susceptibility S/I/R (host strain YMC16/01/R123) | susceptibility category (S/I/R) (host strain YMC16/01/R123) | antibiotic susceptibility S/I/R (host strain YMC16/01/R198) | susceptibility category (S/I/R) (host strain YMC16/01/R198) | antibiotic susceptibility S/I/R (host strain YMC16/01/R353) | susceptibility category (S/I/R) (host strain YMC16/01/R353) | antibiotic susceptibility S/I/R (host strain YMC16/01/R380) | susceptibility category (S/I/R) (host strain YMC16/01/R380) | antibiotic susceptibility S/I/R (host strain YMC16/01/R397) | susceptibility category (S/I/R) (host strain YMC16/01/R397) | antibiotic susceptibility S/I/R (host strain YMC16/01/R405) | susceptibility category (S/I/R) (host strain YMC16/01/R405) | antibiotic susceptibility S/I/R (host strain YMC16/03/R4461) | susceptibility category (S/I/R) (host strain YMC16/03/R4461) | antibiotic susceptibility S/I/R (host strain YMC16/05/R2210) | susceptibility category (S/I/R) (host strain YMC16/05/R2210) | antibiotic susceptibility S/I/R (host strain YMC16/07/R2512) | susceptibility category (S/I/R) (host strain YMC16/07/R2512) | antibiotic susceptibility S/I/R (host strain YMC16/09/R2471) | susceptibility category (S/I/R) (host strain YMC16/09/R2471) | antibiotic susceptibility S/I/R (host strain YMC16/10/R2537) | susceptibility category (S/I/R) (host strain YMC16/10/R2537) | antibiotic susceptibility S/I/R (host strain YMC16/12/B11422) | susceptibility category (S/I/R) (host strain YMC16/12/B11422) | antibiotic susceptibility S/I/R (host strain YMC16/12/B11449) | susceptibility category (S/I/R) (host strain YMC16/12/B11449) | antibiotic susceptibility S/I/R (host strain YMC16/12/B13325) | susceptibility category (S/I/R) (host strain YMC16/12/B13325) | antibiotic susceptibility S/I/R (host strain YMC16/12/P503) | susceptibility category (S/I/R) (host strain YMC16/12/P503) | antibiotic susceptibility S/I/R (host strain YMC16/12/R4637) | susceptibility category (S/I/R) (host strain YMC16/12/R4637) | antibiotic susceptibility S/I/R (host strain YMC17/01/B8053) | susceptibility category (S/I/R) (host strain YMC17/01/B8053) | antibiotic susceptibility S/I/R (host strain YMC17/01/B10087) | susceptibility category (S/I/R) (host strain YMC17/01/B10087) | antibiotic susceptibility S/I/R (host strain YMC17/01/B12075) | susceptibility category (S/I/R) (host strain YMC17/01/B12075) | antibiotic susceptibility S/I/R (host strain YMC17/01/B13454) | susceptibility category (S/I/R) (host strain YMC17/01/B13454) | antibiotic susceptibility S/I/R (host strain YMC17/01/P518) | susceptibility category (S/I/R) (host strain YMC17/01/P518) | antibiotic susceptibility S/I/R (host strain YMC17/01/R2812) | susceptibility category (S/I/R) (host strain YMC17/01/R2812) | antibiotic susceptibility S/I/R (host strain YMC17/02/B14) | susceptibility category (S/I/R) (host strain YMC17/02/B14) | antibiotic susceptibility S/I/R (host strain YMC17/02/B87) | susceptibility category (S/I/R) (host strain YMC17/02/B87) | antibiotic susceptibility S/I/R (host strain YMC17/02/B721) | susceptibility category (S/I/R) (host strain YMC17/02/B721) | antibiotic susceptibility S/I/R (host strain YMC17/02/B4039) | susceptibility category (S/I/R) (host strain YMC17/02/B4039) | antibiotic susceptibility S/I/R (host strain YMC17/02/B4520) | susceptibility category (S/I/R) (host strain YMC17/02/B4520) | antibiotic susceptibility S/I/R (host strain YMC17/02/B8414) | susceptibility category (S/I/R) (host strain YMC17/02/B8414) | antibiotic susceptibility S/I/R (host strain YMC17/02/P523) | susceptibility category (S/I/R) (host strain YMC17/02/P523) | antibiotic susceptibility S/I/R (host strain YMC17/02/R541) | susceptibility category (S/I/R) (host strain YMC17/02/R541) | antibiotic susceptibility S/I/R (host strain YMC17/02/R2392) | susceptibility category (S/I/R) (host strain YMC17/02/R2392) | antibiotic susceptibility S/I/R (host strain YMC17/03/B4730) | susceptibility category (S/I/R) (host strain YMC17/03/B4730) | antibiotic susceptibility S/I/R (host strain YMC17/03/B5000) | susceptibility category (S/I/R) (host strain YMC17/03/B5000) | antibiotic susceptibility S/I/R (host strain YMC17/03/P971) | susceptibility category (S/I/R) (host strain YMC17/03/P971) | antibiotic susceptibility S/I/R (host strain YMC17/03/R348) | susceptibility category (S/I/R) (host strain YMC17/03/R348) | antibiotic susceptibility S/I/R (host strain YMC17/03/R585) | susceptibility category (S/I/R) (host strain YMC17/03/R585) | antibiotic susceptibility S/I/R (host strain YMC17/03/R1888) | susceptibility category (S/I/R) (host strain YMC17/03/R1888) | antibiotic susceptibility S/I/R (host strain YMC17/03/R3279) | susceptibility category (S/I/R) (host strain YMC17/03/R3279) | antibiotic susceptibility S/I/R (host strain YMC17/03/R4077) | susceptibility category (S/I/R) (host strain YMC17/03/R4077) | antibiotic susceptibility S/I/R (host strain YMC17/03/R4607) | susceptibility category (S/I/R) (host strain YMC17/03/R4607) | antibiotic susceptibility S/I/R (host strain YMC17/04/R488) | susceptibility category (S/I/R) (host strain YMC17/04/R488) | antibiotic susceptibility S/I/R (host strain YMC17/04/R640) | susceptibility category (S/I/R) (host strain YMC17/04/R640) | antibiotic susceptibility S/I/R (host strain YMC/17/05/R1095) | susceptibility category (S/I/R) (host strain YMC/17/05/R1095)
S: antibiotic susceptibility S/I/R (host strain YMC17/02/B4864) | susceptibility category (S/I/R) (host strain YMC17/02/B4864)
